According to US20250011300A1, “PIPERAZINYLSULFONYLARYL COMPOUNDS FOR TREATMENT OF BACTERIAL INFECTIONS” (Hoffmann-La Roche Inc., priority 2021, published 2025):
Converted amounts (≈) assume the structure as drawn.

Columns and labels:
E. coli (ATCC 25922) = assay: Minimal Inhibitory Concentration (MIC) assay, E. coli; type: cell-based; conditions: Escherichia coli, ATCC25922; E. coli ATCC 25922, CAMHB, 20 hours at 35° C.; read-out: MIC E. coli ATCC 25922
In short: (§1)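 Broth microdilution in cation-adjusted Mueller Hinton broth, inoculum 5×10^5 CFU/mL, compounds 2-fold serially diluted from 10 mM DMSO stocks. Plates incubated 20 hours at 35° C in ambient air; MIC (μg/mL) is the lowest concentration preventing visible growth.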

[1] = tested on: K. pneumonia (ATCC 43816); assay: Minimal Inhibitory Concentration (MIC) assay, K. pneumonia; type: cell-based; conditions: Klebsiella pneumoniae; K. pneumoniae ATCC43816, CAMHB, 20 hours at 35° C.; read-out: MIC K. pneumoniae ATCC43816
In short: as §1

[2] = biological target: Escherichia coli LpxH (UDP-2,3-diacylglucosamine hydrolase) (Escherichia coli (strain K12), UniProt P43341); assay: 50% Inhibitory Concentration (IC50) to LpxH, UMP/CMP-Glo Glycosyltransferase Assay kit; type: biochemical
Chain of Escherichia coli LpxH (UDP-2,3-diacylglucosamine hydrolase) (P43341 whole entry): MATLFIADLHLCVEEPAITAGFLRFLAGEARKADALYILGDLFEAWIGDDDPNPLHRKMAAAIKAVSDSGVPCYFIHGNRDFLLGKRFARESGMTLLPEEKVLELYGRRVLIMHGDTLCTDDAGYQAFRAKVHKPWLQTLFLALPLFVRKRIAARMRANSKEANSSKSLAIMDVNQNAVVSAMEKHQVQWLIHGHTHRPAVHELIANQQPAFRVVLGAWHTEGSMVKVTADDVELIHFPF
In short: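 LpxH hydrolysis of UDP-2,3-diacylglucosamine to lipid X and UMP; UMP produced is converted to ATP and quantified by luciferase luminescence (UMP/CMP-Glo). Inhibition taken from reduced light output.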

| Compound | MIC (E. coli (ATCC 25922)) | MIC [1] | IC50 [2] |
| --- | --- | --- | --- |
| NC1CC(=O)N(c2ccc(S(=O)(=O)N3CCN(c4cc(C(F)(F)c5ccccc5)nc(Cl)n4)CC3)cc2)C1 (stereo not drawn) [Example 77, 4-Amino-1-[4-[4-[2-chloro-6-[difluoro(phenyl)methyl]pyrimidin-4-yl]piperazin-1-yl]sulfonylphenyl]pyrrolidin-2-one] | 0.44 mg/L (≈ 0.781 µM) | 0.44 mg/L (≈ 0.781 µM) | 0.0071 µM |
| NC1CC(=O)N(c2ccc(S(=O)(=O)N3CCN(c4cc(C(F)(F)c5ccccc5)nc(C5CC5)n4)CC3)cc2)C1 (stereo not drawn) [Example 79, 4-Amino-1-[4-[4-[2-cyclopropyl-6-[difluoro(phenyl)methyl]pyrimidin-4-yl]piperazin-1-yl]sulfonylphenyl]pyrrolidin-2-one] | 14.2 mg/L (≈ 25 µM) | > 28.4 mg/L | 0.179 µM |
| COc1cc(C(F)(F)c2ccccc2)nc(N2CCN(S(=O)(=O)c3ccc(N4CC(N)CC4=O)cc3)CC2)n1 (stereo not drawn) [Example 82, 4-Amino-1-[4-[4-[4-[difluoro(phenyl)methyl]-6-methoxy-pyrimidin-2-yl]piperazin-1-yl]sulfonylphenyl]pyrrolidin-2-one] | 6.98 mg/L (≈ 12.5 µM) | 6.98 mg/L (≈ 12.5 µM) | 0.247 µM |
| Cc1nc(N2CCN(S(=O)(=O)c3ccc(N4C[C@H](N)CC4=O)cc3)CC2)cc(C(F)(F)c2ccccc2)n1 [Example 83, (4R)-4-Amino-1-[4-[4-[6-[difluoro(phenyl)methyl]-2-methyl-pyrimidin-4-yl]piperazin-1-yl]sulfonylphenyl]pyrrolidin-2-one] | 1.7 mg/L (≈ 3.13 µM) | 1.7 mg/L (≈ 3.13 µM) | 0.00369 µM |
| C=Cc1nc(N2CCN(S(=O)(=O)c3ccc(N4CC(N)CC4=O)cc3)CC2)cc(C(F)(F)c2ccccc2)n1 (stereo not drawn) [Example 84, 4-Amino-1-[4-[4-[6-[difluoro(phenyl)methyl]-2-vinyl-pyrimidin-4-yl]piperazin-1-yl]sulfonylphenyl]pyrrolidin-2-one] | 4.18 mg/L (≈ 7.54 µM) | 16.7 mg/L (≈ 30.1 µM) | 0.0144 µM |
| O=C1O[C@H]2CCNC[C@H]2N1c1ccc(S(=O)(=O)N2CCN(c3cc(C(F)(F)c4ccccc4)cc(Cl)n3)CC2)cc1 [Example 87, (3aR,7aS)-3-[4-[4-[6-chloro-4-[difluoro(phenyl)methyl]-2-pyridyl]piperazin-1-yl]sulfonylphenyl]-3a,4,5,6,7,7a-hexahydrooxazolo[4,5-c]pyridin-2-one] | 0.55 mg/L (≈ 0.91 µM) | 1.09 mg/L (≈ 1.8 µM) | 0.0116 µM |
| NCC1CN(c2ccc(S(=O)(=O)N3CCN(c4cc(C(F)(F)c5ccccc5)cc(Cl)n4)CC3)cc2)C(=O)O1 (stereo not drawn) [Example 88, 5-(Aminomethyl)-3-[4-[4-[6-chloro-4-[difluoro(phenyl)methyl]-2-pyridyl]piperazin-1-yl]sulfonylphenyl]oxazolidin-2-one] | 0.26 mg/L (≈ 0.45 µM) | 0.53 mg/L (≈ 0.917 µM) | 0.0138 µM |
| NC1CC(=O)N(c2ccc(S(=O)(=O)N3CCN(c4cc(C(F)(F)c5ccccn5)cc(Cl)n4)CC3)cc2)C1 (stereo not drawn) [Example 89, 4-Amino-1-[4-[4-[6-chloro-4-[difluoro(2-pyridyl)methyl]-2-pyridyl]piperazin-1-yl]sulfonylphenyl] pyrrolidin-2-one] | 0.88 mg/L (≈ 1.56 µM) | 0.88 mg/L (≈ 1.56 µM) | 0.0604 µM |
| NC1CC(=O)N(c2ccc(S(=O)(=O)N3CCN(c4cc(C(F)(F)c5cccnc5)cc(Cl)n4)CC3)cc2)C1 (stereo not drawn) [Example 90, 4-Amino-1-[4-[4-[6-chloro-4-[difluoro(3-pyridyl)methyl]-2-pyridyl]piperazin-1-yl]sulfonylphenyl]pyrrolidin-2-one] | 1.76 mg/L (≈ 3.13 µM) | 1.76 mg/L (≈ 3.13 µM) | 0.0124 µM |
| NC1CC(=O)N(c2ccc(S(=O)(=O)N3CCN(c4cc(C(F)(F)c5ccncc5)cc(Cl)n4)CC3)cc2)C1 (stereo not drawn) [Example 91, 4-Amino-1-[4-[4-[6-chloro-4-[difluoro(4-pyridyl)methyl]-2-pyridyl]piperazin-1-yl]sulfonylphenyl]pyrrolidin-2-one] | 1.76 mg/L (≈ 3.13 µM) | 1.76 mg/L (≈ 3.13 µM) | 0.0107 µM |
| NC1CC(=O)N(c2ccc(S(=O)(=O)N3CCN(c4cc(C(F)(F)c5cncnc5)cc(Cl)n4)CC3)cc2)C1 (stereo not drawn) [Example 92, 4-Amino-1-[4-[4-[6-chloro-4-[difluoro(pyrimidin-5-yl)methyl]-2-pyridyl]piperazin-1-yl]sulfonylphenyl]pyrrolidin-2-one] | 2.12 mg/L (≈ 3.76 µM) | 4.24 mg/L (≈ 7.52 µM) | 0.0957 µM |
| NC1CC(=O)N(c2ccc(S(=O)(=O)N3CCN(c4cc(C(F)(F)c5cnccn5)cc(Cl)n4)CC3)cc2)C1 (stereo not drawn) [Example 93, 4-Amino-1-[4-[4-[6-chloro-4-[difluoro(pyrazin-2-yl)methyl]-2-pyridyl]piperazin-1-yl]sulfonylphenyl]pyrrolidin-2-one] | 1.76 mg/L (≈ 3.12 µM) | 1.76 mg/L (≈ 3.12 µM) | 0.0124 µM |
| NC1CC(=O)N(c2ccc(S(=O)(=O)N3CCN(c4cc(C(F)(F)c5ncccn5)cc(Cl)n4)CC3)cc2)C1 (stereo not drawn) [Example 94, 4-Amino-1-[4-[4-[6-chloro-4-[difluoro(pyrimidin-2-yl)methyl]-2-pyridyl]piperazin-1-yl]sulfonylphenyl]pyrrolidin-2-one] | 3.53 mg/L (≈ 6.26 µM) | 3.53 mg/L (≈ 6.26 µM) | 0.186 µM |
| NC1CC(=O)N(c2ccc(S(=O)(=O)N3CCN(c4cc(C(F)(F)C5CCOCC5)cc(Cl)n4)CC3)cc2)C1 (stereo not drawn) [Example 95, 4-Amino-1-[4-[4-[6-chloro-4-[difluoro(tetrahydropyran-4-yl)methyl]-2-pyridyl]piperazin-1-yl]sulfonylphenyl]pyrrolidin-2-one] | 0.89 mg/L (≈ 1.56 µM) | 0.89 mg/L (≈ 1.56 µM) | 0.0579 µM |
| NC1CC(=O)N(c2ccc(S(=O)(=O)N3CCN(c4cc(C(F)(F)C5CCOC5)cc(Cl)n4)CC3)cc2)C1 (stereo not drawn) [Example 96, 4-Amino-1-[4-[4-[6-chloro-4-[difluoro(tetrahydrofuran-3-yl)methyl]-2-pyridyl]piperazin-1-yl]sulfonylphenyl]pyrrolidin-2-one] | 3.48 mg/L (≈ 6.26 µM) | 1.74 mg/L (≈ 3.13 µM) | 0.0036 µM |
| NC1CC(=O)N(c2ccc(S(=O)(=O)N3CCN(c4cc(C(F)(F)C5COC5)cc(Cl)n4)CC3)cc2)C1 (stereo not drawn) [Example 97, 4-Amino-1-[4-[4-[6-chloro-4-[difluoro(oxetan-3-yl)methyl]-2-pyridyl]piperazin-1-yl]sulfonylphenyl]pyrrolidin-2-one] | 0.85 mg/L (≈ 1.57 µM) | 1.27 mg/L (≈ 2.34 µM) | 0.0886 µM |
| NC1CC(=O)N(c2ccc(S(=O)(=O)N3CCN(c4cc(C(F)(F)C5=CCOCC5)cc(Cl)n4)CC3)cc2)C1 (stereo not drawn) [Example 98, 4-Amino-1-[4-[4-[6-chloro-4-[3,6-dihydro-2H-pyran-4-yl(difluoro)methyl]-2-pyridyl]piperazin-1-yl]sulfonylphenyl]pyrrolidin-2-one] | 0.89 mg/L (≈ 1.57 µM) | 0.89 mg/L (≈ 1.57 µM) | 0.0475 µM |
| NC1CC(=O)N(c2ccc(S(=O)(=O)N3CCN(c4cc(C(F)(F)C5CCCOC5)cc(Cl)n4)CC3)cc2)C1 (stereo not drawn) [Example 99, 4-Amino-1-[4-[4-[6-chloro-4-[difluoro(tetrahydropyran-3-yl)methyl]-2-pyridyl]piperazin-1-yl]sulfonylphenyl]pyrrolidin-2-one] | 4.01 mg/L (≈ 7.03 µM) | 0.89 mg/L (≈ 1.56 µM) | < 0.00351 µM |
| NC1CC(=O)N(c2ccc(S(=O)(=O)N3CCN(c4cc(C(F)(F)C5CC6CCC(C5)O6)cc(Cl)n4)CC3)cc2)C1 (stereo not drawn) [Example 100, 4-Amino-1-[4-[4-[6-chloro-4-[difluoro(8-oxabicyclo[3.2.1]octan-3-yl)methyl]-2-pyridyl]piperazin-1-yl]sulfonylphenyl]pyrrolidin-2-one] | 1.86 mg/L (≈ 3.12 µM) | 0.93 mg/L (≈ 1.56 µM) | < 0.00336 µM |
| N[C@@H]1CC(=O)N(c2ccc(S(=O)(=O)N3CCN(c4cc(C(F)(F)C5C6COCC65)cc(Cl)n4)CC3)cc2)C1 (stereo partly drawn) [Example 101, (4R)-4-amino-1-[4-[4-[6-chloro-4-[difluoro(3-oxabicyclo[3.1.0]hexan-6-yl)methyl]-2-pyridyl]piperazin-1-yl]sulfonylphenyl]pyrrolidin-2-one] | 0.44 mg/L (≈ 0.775 µM) | 0.89 mg/L (≈ 1.57 µM) | 0.0968 µM |
| N[C@@H]1CC(=O)N(c2ccc(S(=O)(=O)N3CCN(c4cc(C(F)(F)[C@@H]5COCCO5)cc(Cl)n4)CC3)cc2)C1 [Example 102, (4R)-4-amino-1-[4-[4-[6-chloro-4-[[(2S)-1,4-dioxan-2-yl]-difluoro-methyl]-2-pyridyl]piperazin-1-yl]sulfonylphenyl]pyrrolidin-2-one] | 0.89 mg/L (≈ 1.56 µM) | 0.89 mg/L (≈ 1.56 µM) | 0.0105 µM |
| N[C@@H]1CC(=O)N(c2ccc(S(=O)(=O)N3CCN(c4cc(C(F)(F)[C@H]5COCCO5)cc(Cl)n4)CC3)cc2)C1 [Example 103, (4R)-4-amino-1-[4-[4-[6-chloro-4-[[(2R)-1,4-dioxan-2-yl]-difluoro-methyl]-2-pyridyl]piperazin-1-yl]sulfonylphenyl]pyrrolidin-2-one] | 0.89 mg/L (≈ 1.56 µM) | 0.89 mg/L (≈ 1.56 µM) | 0.0035 µM |
| N[C@@H]1CC(=O)N(c2ccc(S(=O)(=O)N3CCN(c4cc(C(F)(F)[C@@H]5CNCCO5)cc(Cl)n4)CC3)cc2)C1 [Example 104] | 1.01 mg/L (≈ 1.77 µM) | 2.01 mg/L (≈ 3.52 µM) | 0.00876 µM |
| N[C@@H]1CC(=O)N(c2ccc(S(=O)(=O)N3CCN(c4cc(C(F)(F)[C@H]5CNCCO5)cc(Cl)n4)CC3)cc2)C1 [Example 105, (4R)-4-amino-1-[4-[4-[6-chloro-4-[difluoro-[(2R)-morpholin-2-yl]methyl]-2-pyridyl]piperazin-1-yl]sulfonylphenyl]pyrrolidin-2-one] | 1.79 mg/L (≈ 3.13 µM) | 1.79 mg/L (≈ 3.13 µM) | 0.00525 µM |
| N[C@@H]1CC(=O)N(c2ccc(S(=O)(=O)N3CCN(c4cc(C(F)(F)C5=CCNCC5)cc(Cl)n4)CC3)cc2)C1 [Example 106] | 1.77 mg/L (≈ 3.12 µM) | 1.77 mg/L (≈ 3.12 µM) | 0.199 µM |
